Consider 24 compounds from patent US5387602A, “1.5-diphenyl-3-(N-hydroxycarbamoyloxyalkyl)pyrazoles” (Ortho Pharmaceutical Corporation, priority 1993, dated 1995).

The structures appear in SMILES notation. pIC50: −log10 of the molar value.

Test [1] addresses T1, 5-LO in intact RBL-1 cells (Rattus norvegicus, UniProt P12527).
T1 construct: 5-LO and CO in intact RBL-1 cells; endogenous in cells; host or cells: RBL-1 (rat basophilic leukemia cells), intact
T1 sequence (P12527 1-673): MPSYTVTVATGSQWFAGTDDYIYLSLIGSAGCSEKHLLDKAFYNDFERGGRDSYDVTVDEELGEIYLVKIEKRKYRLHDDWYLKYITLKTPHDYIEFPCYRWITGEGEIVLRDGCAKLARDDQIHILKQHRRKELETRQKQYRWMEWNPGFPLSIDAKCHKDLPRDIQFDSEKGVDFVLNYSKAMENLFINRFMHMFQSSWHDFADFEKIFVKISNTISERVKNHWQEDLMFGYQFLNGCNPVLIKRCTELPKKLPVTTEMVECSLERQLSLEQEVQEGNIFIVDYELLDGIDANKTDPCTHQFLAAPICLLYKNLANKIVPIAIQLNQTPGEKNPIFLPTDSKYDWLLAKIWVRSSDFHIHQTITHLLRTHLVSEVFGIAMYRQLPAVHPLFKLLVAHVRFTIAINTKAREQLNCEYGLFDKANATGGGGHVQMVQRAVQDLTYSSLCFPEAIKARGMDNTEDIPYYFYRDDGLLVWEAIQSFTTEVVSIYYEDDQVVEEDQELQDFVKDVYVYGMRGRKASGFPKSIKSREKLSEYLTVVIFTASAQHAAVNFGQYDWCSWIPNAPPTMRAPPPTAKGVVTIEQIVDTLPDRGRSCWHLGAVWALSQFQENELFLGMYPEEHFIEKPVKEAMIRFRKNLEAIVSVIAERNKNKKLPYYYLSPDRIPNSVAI
The test is described as follows: Procedure III: inhibition of 5-LO in intact RBL-1 cells. The class given is cell-based. On the procedure:
(§1) The ability to inhibit 5-LO and CO in intact RBL-1 cells was also evaluated. RBL-1 cells were maintained in culture in minimal essential medium (Bio*Whittaker, Walkersville, Md.), containing 12.5% fetal calf serum, 10 mg/mL streptomycin, 10 I.U./mL penicillin G, […] gentamycin and 2 mM L-glutamine (Bio*Whittaker, Walkersville, Md.). Cells were collected by centrifugation, washed once in HBSS, and resuspended at a concentration of 1×10^5 cells/mL. Cells were incubated in the presence of vehicle or drug then centrifuged at 800×g for 10 minutes at 4° C. The supernatant was removed by aspiration and the cells were resuspended in 0.5 mL of HBSS. The reaction was started by the addition of 20 μg/mL of calcium ionophore A-23187 (mixed calcium and magnesium salts, Calbiochem, La Jolla, Calif.) and allowed to proceed for 15 minutes, then stopped by plunging the tubes into a slush ice bath. The conversion of AA to 5-LO products was initiated by the addition of 10 μL (50 uCi) of 1-^14 C-AA. Products were isolated by acidification and extraction, followed by thin layer chromatography analysis as described above. Radioactive areas corresponding to authentic 5-LO and CO products were quantitated by the Bioscan 2000 Imaging System.
(§2) In the following tables, the superscripts indicate the number of experiments and, unless otherwise stated, the dose at which % inhibition is reported is 3 MPK.

A further test deals with T2, CO in intact RBL-1 cells (Rattus norvegicus, UniProt Q63921).
T2 construct: 5-LO and CO in intact RBL-1 cells; endogenous in cells; host or cells: RBL-1 (rat basophilic leukemia cells), intact
T2 sequence (Q63921 27-602): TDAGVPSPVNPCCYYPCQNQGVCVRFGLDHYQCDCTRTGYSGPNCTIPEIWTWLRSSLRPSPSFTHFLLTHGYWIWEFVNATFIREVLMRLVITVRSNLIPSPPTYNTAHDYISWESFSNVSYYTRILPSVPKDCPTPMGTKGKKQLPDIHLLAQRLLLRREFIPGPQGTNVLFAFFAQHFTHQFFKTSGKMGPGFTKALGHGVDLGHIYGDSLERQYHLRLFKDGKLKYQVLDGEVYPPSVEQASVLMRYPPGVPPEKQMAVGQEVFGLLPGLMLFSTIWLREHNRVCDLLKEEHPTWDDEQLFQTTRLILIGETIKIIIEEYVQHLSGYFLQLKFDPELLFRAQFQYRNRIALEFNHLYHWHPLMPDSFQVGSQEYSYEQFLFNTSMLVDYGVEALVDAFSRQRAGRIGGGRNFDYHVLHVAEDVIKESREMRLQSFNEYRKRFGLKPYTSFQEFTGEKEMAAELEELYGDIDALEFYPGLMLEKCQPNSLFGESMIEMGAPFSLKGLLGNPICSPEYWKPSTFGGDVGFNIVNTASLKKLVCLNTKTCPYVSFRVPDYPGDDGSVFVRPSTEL
The test is described as follows: Procedure III: inhibition of CO in intact RBL-1 cells. The class given is cell-based. On the procedure: as §1, §2

The target in test [2] is T3, RBL-1 Cell 5-Lipoxygenase (Rattus norvegicus, UniProt P12527).
T3 construct: the supernatant was saved as the source of enzymes; endogenous in cells; host or cells: RBL-1 (rat basophilic leukemia cells), 10,000×g supernatant of homogenate
T3 sequence (P12527 1-673): T1 sequence (P12527 1-673)
The test is described as follows: Procedure II: 5-lipoxygenase inhibition in disrupted RBL-1 cells (supernatant as enzyme source). As to conditions: for pIC50: read-out: IC50 5-LO (Procedure II). The class given is biochemical. On the procedure:
RBL-1 Cell 5-Lipoxygenase and Cyclooxygenase
Rat basophilic leukemia cells (RBL-1; 5×10^7 viable cells/mL) were disrupted by homogenization on ice (four 20 sec bursts) with a Brinkman polytron. Complete cell breakage was verified microscopically. The homogenate was then centrifuged at 10,000×g for 48 minutes at 4° C. The pellet was discarded and the supernatant was saved as the source of enzymes. The supernatant was pre-incubated for five minutes at 37° C. in the presence of 2 mM of CaCl2 and compound or vehicle (1% DMSO). The conversion of AA into 5-LO products was initiated by adding 10 μL (50 μCi) of 1-^14 C-AA to each tube and incubated at 37° C. for 20 minutes. The reaction was stopped by adjusting the pH of each sample to 3 to 3.5 with 2M formic acid. Samples were extracted with three volumes of chloroform to isolate the products of 5-LO formed during the reaction. Fractions were dried under nitrogen, then resuspended in 40 μL of chloroform and spotted onto silica gel HL plates. The plates were developed in A-9 solvent. The dried plates were analyzed using a Bioscan Imaging TLC scanner to determine the percentage of radiolabelled AA converted to 5-HETE in each sample.
as §2

Usually pIC50 stands for the IC50 on a negative log10 scale, so that one unit is a factor of ten. On to `COc1ccc(-n2nc(COC(=O)NO)cc2-c2ccc(Cl)cc2)cc1` [1-A], for which the pIC50 in test [1] was 4.62; at CO in intact RBL-1 cells it was 5.85; in test [2] it was 5.90. Also, the “% INHIBITION 5-LO (Procedure II)” value in test [2] is 20%.
Regarding `COc1ccc(-n2nc(COC(=O)N(C)O)cc2-c2ccc(Cl)cc2)cc1` [1-B], the results for the pIC50 (in test [1]; against CO in intact RBL-1 cells; in test [2]) were 5.21, 6.42 and 6.32, respectively. The “% INHIBITION 5-LO (Procedure II)” value in test [2] is 85%.
For `COc1ccc(-n2nc(COC(=O)N(O)C(C)C)cc2-c2ccc(Cl)cc2)cc1` [1-C], the pIC50 in test [1] was 4.97; against CO in intact RBL-1 cells it was 6.27; in test [2], 5.99. The “% INHIBITION 5-LO (Procedure II)” value in test [2] worked out at 88%.
The matching figures for `COc1ccc(-n2nc(COC(=O)NO)c(Br)c2-c2ccc(Cl)cc2)cc1` [1-D]: 4.59, 5.62, 6.08 and 28%.
Regarding `COc1ccc(-n2nc(COC(=O)N(C)O)c(Br)c2-c2ccc(Cl)cc2)cc1` [1-E], the results for the pIC50 (in test [1]; at CO in intact RBL-1 cells; in test [2]) were 5.92, 6.66 and 6.55, respectively. In test [2], the “% INHIBITION 5-LO (Procedure II)” value came out at 85%.
As for `COc1ccc(-n2nc(COC(=O)N(O)C(C)C)c(Br)c2-c2ccc(Cl)cc2)cc1` [1-F], the pIC50 in test [1] is 5.44; against CO in intact RBL-1 cells, 5.72; in test [2], 6.92. Also, the “% INHIBITION 5-LO (Procedure II)” value in test [2] is on record as 63%.
With `COc1ccc(-n2nc(COC(=O)NO)c(Cl)c2-c2ccc(Cl)cc2)cc1` [1-G], the pIC50 in test [1] was 4.80; against CO in intact RBL-1 cells, 5.66; in test [2], 6.12. Also, in test [2], the “% INHIBITION 5-LO (Procedure II)” value was determined as 25%.
Taken in the same sequence, the figures for `COc1ccc(-n2nc(COC(=O)N(C)O)c(Cl)c2-c2ccc(Cl)cc2)cc1` [1-H] were 5.70, 6.41, over 7.00 and 83%.
As for `COc1ccc(-n2nc(COC(=O)N(O)C(C)C)c(Cl)c2-c2ccc(Cl)cc2)cc1` [1-I], the pIC50 in test [1] is 5.63; against CO in intact RBL-1 cells it was 5.71; in test [2], 6.64. Moreover, the “% INHIBITION 5-LO (Procedure II)” value in test [2] stood at 83%.
For `COc1ccc(-n2nc(COC(=O)NO)cc2-c2ccc(C)cc2)cc1` [1-J], the pIC50 was 4.59 in test [1], 6.77 against CO in intact RBL-1 cells and 5.76 in test [2]. For the same compound, the “% INHIBITION 5-LO (Procedure II)” value in test [2] was 33%.
`COc1ccc(-n2nc(COC(=O)N(C)O)cc2-c2ccc(C)cc2)cc1` [1-K]: the pIC50 is 5.44 in test [1], 7.52 on CO in intact RBL-1 cells and 6.52 in test [2]. The “% INHIBITION 5-LO (Procedure II)” value in test [2] turned out to be 58%.
Regarding `COc1ccc(-n2nc(COC(=O)N(O)C(C)C)cc2-c2ccc(C)cc2)cc1` [1-L], the pIC50 in test [1] was 5.42; on CO in intact RBL-1 cells, 7.70; in test [2], 6.32. Moreover, the “% INHIBITION 5-LO (Procedure II)” value in test [2] is reported as 86%.
Take `COc1ccc(-n2nc(COC(=O)NO)c(Br)c2-c2ccc(C)cc2)cc1` [1-M]: the pIC50 in test [1] is 4.67; on CO in intact RBL-1 cells it was 6.07; in test [2], 5.28. For the same compound, the “% INHIBITION 5-LO (Procedure II)” value in test [2] amounted to 63%.
For `COc1ccc(-n2nc(COC(=O)N(C)O)c(Br)c2-c2ccc(C)cc2)cc1` [1-N], the results for the pIC50 (in test [1]; on CO in intact RBL-1 cells; in test [2]) were 5.46, 7.10 and 6.39, respectively. For the same compound, the “% INHIBITION 5-LO (Procedure II)” value in test [2] was 74%.
Taken in the same sequence, the figures for `COc1ccc(-n2nc(COC(=O)N(O)C(C)C)c(Br)c2-c2ccc(C)cc2)cc1` [1-O] were 5.29, 6.07, 6.74 and 81%.
Turning to `COc1ccc(-n2nc(COC(=O)NO)c(Cl)c2-c2ccc(C)cc2)cc1` [1-P], the figures for the pIC50 (in test [1]; against CO in intact RBL-1 cells; in test [2]) were 4.76, 5.60 and 6.05, respectively. Also, the “% INHIBITION 5-LO (Procedure II)” value in test [2] was 30%.
As for `COc1ccc(-n2nc(COC(=O)N(C)O)c(Cl)c2-c2ccc(C)cc2)cc1` [1-Q], the pIC50 was 5.74 in test [1], 6.82 against CO in intact RBL-1 cells and 7.30 in test [2]. In addition, in test [2], the “% INHIBITION 5-LO (Procedure II)” value came to 88%.
The matching figures for `COc1ccc(-n2nc(COC(=O)N(O)C(C)C)c(Cl)c2-c2ccc(C)cc2)cc1` [1-R]: 5.57, 5.39, 7.00 and 87%.
Take `COc1ccc(-n2nc(CCOC(=O)N(C)O)cc2-c2ccc(Cl)cc2)cc1` [2-A]: the pIC50 in test [1] is 5.87; against CO in intact RBL-1 cells, 6.10; in test [2], 7.22. Also, the “% INHIBITION 5-LO (Procedure II)” value in test [2] is 82%.
For `COc1ccc(-n2nc(CCOC(=O)N(O)C(C)C)cc2-c2ccc(Cl)cc2)cc1` [2-B], the pIC50 in test [1] is 5.70; on CO in intact RBL-1 cells it was 6.74; in test [2] it was 7.00. In addition, the “% INHIBITION 5-LO (Procedure II)” value in test [2] is reported as 84%.
As for `COc1ccc(-n2nc(CCOC(=O)N(C)O)c(Cl)c2-c2ccc(Cl)cc2)cc1` [2-C], the pIC50 in test [1] is 5.38; against CO in intact RBL-1 cells, 5.57; in test [2], 6.33. Moreover, the “% INHIBITION 5-LO (Procedure II)” value in test [2] worked out at 69%.
For `COc1ccc(-n2nc(CCOC(=O)N(O)C(C)C)c(Cl)c2-c2ccc(Cl)cc2)cc1` [2-D], the pIC50 is 5.64 in test [1], 5.82 at CO in intact RBL-1 cells and 7.15 in test [2]. For the same compound, the “% INHIBITION 5-LO (Procedure II)” value in test [2] is 70%.
The matching figures for `COc1ccc(-n2nc(CCOC(=O)N(C)O)c(Br)c2-c2ccc(Cl)cc2)cc1` [2-E]: 5.96, 5.66, 6.72 and 72%.
For the compound `COc1ccc(-n2nc(CCOC(=O)N(O)C(C)C)c(Br)c2-c2ccc(Cl)cc2)cc1` [2-F], the pIC50 is 5.80 in test [1], 5.62 against CO in intact RBL-1 cells and 6.85 in test [2]. Further, the “% INHIBITION 5-LO (Procedure II)” value in test [2] was determined as 71%.
